# In article PMC5650142, “GPR40 partial agonists and AgoPAMs: Differentiating effects on glucose and hormonal secretions in the rodent” (PLoS ONE, 2017):
# Values joined by “and” are separate entries in the source; they are usually repeats but may differ in a detail not shown here. Identical values can stand only once.
# Test system: GK rats
# Assay: GK rat chronic efficacy (28 days: glucose, food intake, body weight, GLP-1, GIP, PYY, insulin, glucagon)
# Format: in vivo
# Design: Food Intake Over Time (Fig 3C) / Total Body Weight Change Over Time / Active GLP-1 Levels Over Time: unit not given here
# Conditions: for Total Body Weight Change Over Time / Active GLP-1 Levels Over Time / GIP Levels Over Time / PYY Levels Over Time / Plasma Insulin Over Time: GK rats; for GIP Levels Over Time / PYY Levels Over Time: in pg/mL (unit assumed)
# Method: At the start of the study, fed (ambient) blood glucose was measured via glucometer at 1 h post lights on, and animals were selected and sorted into treatment groups based on ambient glucose (n = 10/ GK group, n = 6 WKY control). Blood for baseline incretin measurements was collected in the PM via tail vein. Rats were dosed via oral gavage (PO) at a volume of 5 ml/kg daily at approximately 12:30 PM with either vehicle (0.5% methylcellulose), AP1 at 30 mg/kg, or AP3 at 30 mg/kg. MK-8666, a GPR40 partial agonist synthesized at Merck & Co., Inc., Kenilworth, NJ USA [13], at 30 mg/kg was administered in feed (Research Diets, New Brunswick, NJ) and provided ad lib. All compounds were administered to achieve maximal efficacious exposures determined in acute efficacy studies similar to those acute studies described above. In brief, partial agonists and AgoPAMs were titrated in the acute GK rat experiment described above and the exposure associated with maximal efficacy in glucose lowering was noted. Partial agonists and AgoPAMs were then dosed to maintain those exposures up to 24h post dose. […] Rats from this group and the WKY controls were administered vehicle PO when the vehicle, AP1, and AP3 groups were treated. Fed blood glucose, food intake, and body weights were determined on days 10, 17, 23, and 28 of study at 2 h post lights on. Immediately after these measures were taken on days 10, 17, 23, and 28, food was removed. After 5h of fasting, animals were dosed with vehicle or compound and allowed to rest for an additional hour. Glucose, GLP-1, GIP, and PYY were measured after 6h of fasting at 1 hr post dose. Fed blood glucose is described by animals having had ad libidum access to feed up till the time of sampling and occurred at 2h post-lights on where rats were nearing the end of their nocturnal feeding cycle. Fasted blood glucose is described by blood glucose sampled after 6h of fasting where food was removed at 2h post lights on. Please note that the fasted sample was taken 1h post oral dosing. On day 10, blood was collected from the tail vein (20 μl) after morning glucose measures and after 6 hour fast from a subset of n = 3 rats per treatment group to determine the fed and fasted exposure of the compounds in circulation. The blood was stored at 4°C in 0.1 M sodium citrate for subsequent analysis of drug exposure.
# Blood for insulin, glucagon, GLP-1, GIP, and PYY measurements was collected into K2EDTA Microtainer tubes (BD, Franklin Lakes, NJ) pre-treated with DPP4 inhibitor (Millipore, Billerica, MA) and cOmplete™ Protease Inhibitor Cocktail Tablets (Roche Diagnostics, Indianapolis, IN). Tubes were centrifuged for 10 minutes at 5000 RPM, and plasma was aliquotted for analysis. Plasma insulin levels were measured via EIA (Mesoscale Discovery ELISA Kit, Gaithersburg MD). Rat plasma total GLP-1 was measured using Total GLP-1 (ver.2) Assay Kit (Cat#: K150JVC). The measurement of active GLP-1 was carried out in a similar manner as that described for total GLP-1 assay with the exception that MSD Active GLP-1 (ver. 2) assay kit (Cat# K150JWC) was used. Rat plasma glucagon was measured using an in-house glucagon assay developed as a MSD format sandwich immunoassay (Merck & Co., Inc., MRL, Kenilworth, NJ USA). The antibody specificity was cross validated via mass- spec using procedures described in Lee et al. Briefly, MSD Streptavidin Gold plates were coated with 2 μg/ml biotin mouse monoclonal antibody generated to glucagon. Test samples were added to the plates and a separate Sulfo- tagged monoclonal antibody was used to detect the captured glucagon protein (2 μg/ml). The ELISA was carried out in the standard reagents in the MSD format. The plate was read on the SECTOR Imager 6000 Reader. Metabolic hormones GIP (Gastric Inhibitory Polypeptide) and PYY (Peptide YY) were measured in rat plasma using the Rat Metabolic Magnetic Bead Panel (EMD Millipore, Billerica, MA). The assay was performed according to manufacturer protocol. […]
smiles,measurement,setting,value
Cc1cc(OCCCS(C)(=O)=O)cc(C)c1-c1cccc(COc2cc3c(cn2)[C@H]2[C@@H](C3)[C@@H]2C(=O)O)c1 [MK-8666],"Glucose Over time (S2 File, Fig 2A)","30 mpk, Day 0, individual animals",167 mg/dL and 165 mg/dL and 192 mg/dL and 168 mg/dL and 160 mg/dL and 197 mg/dL and 172 mg/dL and 183 mg/dL and 169 mg/dL and 161 mg/dL
same,Food Intake Over Time (Fig 3C),"30 mpk, Day 10",20.6389 and 19.3556 and 19.3778 and 21 and 18.9
same,"Glucose Over time (S2 File, Fig 2A)","30 mpk, Day 10, individual animals",128 mg/dl and 123 mg/dl and 142 mg/dl and 120 mg/dl and 139 mg/dl (2×) and 127 mg/dl and 130 mg/dl and 140 mg/dl and 115 mg/dl
same,Food Intake Over Time (Fig 3C),"30 mpk, Day 17",18.0071 and 18.5429 and 17.1786 and 18.0357 and 16.8714
same,"Glucose Over time (S2 File, Fig 2A)","30 mpk, Day 17, individual animals",130 mg/dL and 155 mg/dL and 159 mg/dL and 140 mg/dL and 132 mg/dL and 137 mg/dL and 120 mg/dL and 138 mg/dL and 110 mg/dL and 102 mg/dL
same,Food Intake Over Time (Fig 3C),"30 mpk, Day 23",18.6833 and 18.8833 and 18.4167 and 19.5083 and 18.1917
same,"Glucose Over time (S2 File, Fig 2A)","30 mpk, Day 23, individual animals",129 mg/dL and 132 mg/dL and 148 mg/dL and 138 mg/dL and 131 mg/dL and 124 mg/dL and 143 mg/dL and 144 mg/dL and 119 mg/dL and 122 mg/dL
same,Food Intake Over Time (Fig 3C),"30 mpk, Day 28",18.66 and 18.67 and 17.38 and 21.2 and 17.95
same,"Glucose Over time (S2 File, Fig 2A)","30 mpk, Day 28, individual animals",130 mg/dL and 128 mg/dL and 147 mg/dL and 122 mg/dL and 143 mg/dL and 136 mg/dL and 123 mg/dL and 135 mg/dL and 131 mg/dL and 116 mg/dL
same,Fasted glucose on day 28 (Fig 3B),"30 mpk, day 28, fasted, individual animals",119 and 118 and 107 and 100 and 94 and 104 and 124 and 102 and 96 and 105
same,Fed glucose on day 28 (Fig 3B),"30 mpk, day 28, fed, individual animals",123 and 135 and 131 and 116 and 130 and 128 and 147 and 122 and 143 and 136
same,"gut hormones (total and active GLP-1, GIP, PYY)","GK rat, 30 mg/kg, 4 weeks of treatment",no effect
same,Plasma Glucagon,"GK rat, 30 mg/kg, 28 days",trend of increasing glucagon on day 28
same,body weight,"GK rat, 30 mg/kg, 28 days",no effect
same,fed blood glucose vs vehicle controls,"GK rat, 30 mg/kg, 28 days, days 10–28",significant effect on day 28 only
same,Total Body Weight Change Over Time,"30 mpk, Day 0, individual animals (Fig 3D)",0
same,Active GLP-1 Levels Over Time,"30 mpk, Day 0, individual animals (Fig 4B), 30 mg/kg",1.901 and 1.26 and 2.116 and 3.51 and 2.184 and 0.8674 and 1.257 and 2.71 and 1.494 and 1.111
same,GIP Levels Over Time,"30 mpk, Day 0, individual animals (Fig 4C), 30 mg/kg",12.65 and 5.7 and 68.06 and 68.73 and 44.75 and 71.88 and 53.28 and 113.97 and 32.85 and 33.08
same,PYY Levels Over Time,"30 mpk, Day 0, individual animals (Fig 4D), 30 mg/kg",104.9 and 81.92 and 88.3 and 95.99 and 52.32 and 50.41 and 79.99 and 158.3 and 57.72 and 25.52
same,Plasma Insulin Over Time,"30 mpk, Day 0, individual animals (Fig 5A), 30 mg/kg",0.7825 ng/mL and 1.015 ng/mL and 2.348 ng/mL and 1.621 ng/mL and 2.16 ng/mL and 2.5584 ng/mL and 2.141 ng/mL and 1.201 ng/mL and 2.632 ng/mL and 2.493 ng/mL
same,Total Body Weight Change Over Time,"30 mpk, Day 10, individual animals (Fig 3D), 30 mg/kg",20 and 26 and 18 and 13 and 22 and 3 and 11 and 21 and 12 and 4
same,Active GLP-1 Levels Over Time,"30 mpk, Day 10, individual animals (Fig 4B), 30 mg/kg",1.599 and 1.212 and 2.275 and 1.828 and 2.945 and 2.154 and 1.327 and 1.669 and 1.343 and 1.536
same,GIP Levels Over Time,"30 mpk, Day 10, individual animals (Fig 4C), 30 mg/kg",39.32 and 74.04 and 79.4 and 80.59 and 90.86 and 47.57 and 50.25 and 47.43 and 58.38 and 34.5
same,PYY Levels Over Time,"30 mpk, Day 10, individual animals (Fig 4D), 30 mg/kg",68.18 and 84.22 and 84.94 and 98.89 and 97.3 and 93.71 and 80.17 and 75.96 and 87.42 and 74.37
same,Plasma Insulin Over Time,"30 mpk, Day 10, individual animals (Fig 5A), 30 mg/kg",1.605 ng/mL and 1.432 ng/mL and 1.588 ng/mL and 2.061 ng/mL and 1.507 ng/mL and 2.521 ng/mL and 2.104 ng/mL and 0.5711 ng/mL and 1.866 ng/mL and 2.359 ng/mL
same,Total Body Weight Change Over Time,"30 mpk, Day 17, individual animals (Fig 3D), 30 mg/kg",34 (2×) and 41 and 29 and 32 (2×) and 11 and 22 (2×) and 9
same,Active GLP-1 Levels Over Time,"30 mpk, Day 17, individual animals (Fig 4B), 30 mg/kg",0.86 and 0.3 and 1.09 and 0.6 and 0.76 and 1.16 and 0.79 and 0.57 (2×) and 1.44
same,GIP Levels Over Time,"30 mpk, Day 17, individual animals (Fig 4C), 30 mg/kg",72.64 and 104.54 and 131.52 and 71.84 and 86.95 and 58.88 and 85.41 and 17.08 and 86.39 and 75.71
same,PYY Levels Over Time,"30 mpk, Day 17, individual animals (Fig 4D), 30 mg/kg",84.67 and 106.51 and 99.04 and 75.86 and 81.98 and 124.9 and 74.42 and 49.36 and 77.72 and 64.96
same,Plasma Insulin Over Time,"30 mpk, Day 17, individual animals (Fig 5A), 30 mg/kg",2.096 ng/mL and 1.971 ng/mL and 2.299 ng/mL and 1.835 ng/mL and 1.8388 ng/mL and 1.142 ng/mL and 2.593 ng/mL and 0.8411 ng/mL and 2.087 ng/mL and 1.846 ng/mL
same,Total Body Weight Change Over Time,"30 mpk, Day 23, individual animals (Fig 3D), 30 mg/kg",40 and 50 and 44 and 31 (2×) and 12 and 29 and 38 and 27 and 17
same,Total Body Weight Change Over Time,"30 mpk, Day 28, individual animals (Fig 3D), 30 mg/kg",42 (2×) and 59 and 53 and 39 and 16 and 38 and 47 and 36 and 23
same,Active GLP-1 Levels Over Time,"30 mpk, Day 28, individual animals (Fig 4B), 30 mg/kg",1.155 and 1.013 and 1.22 and 0.9448 and 0.9241 and 0.9389 and 0.7791 and 1.439 and 1.063 and 0.9152
same,GIP Levels Over Time,"30 mpk, Day 28, individual animals (Fig 4C), 30 mg/kg",17.53 and 7.25 and 46.24 and 76.52 and 12.03 and 22.4 and 15.13 and 16.8 and 5.84
same,PYY Levels Over Time,"30 mpk, Day 28, individual animals (Fig 4D), 30 mg/kg",66.63 and 94.86 and 108.27 and 72.37 and 63.96 and 49.91 and 49.72 and 83.74 and 62.98 and 45.13
same,Plasma Insulin Over Time,"30 mpk, Day 28, individual animals (Fig 5A), 30 mg/kg",1.012 ng/mL and 1.26 ng/mL and 1.45 ng/mL and 2.851 ng/mL and 1.138 ng/mL and 1.638 ng/mL and 1.554 ng/mL and 1.1554 ng/mL and 1.58 ng/mL and 1.305 ng/mL
